Marks after values point to notes of the source that are not given here.
Legend:
human A549 cells = settings: cited from earlier work
[1] = system: Stenotrophomonas maltophilia K279a; format: cell-based
Escherichia coli 120955 [2] = format: cell-based
[3] = system: Burkholderia cenocepacia K56-2; assay: MBC (minimum bactericidal concentration); format: cell-based; settings: MBC determined from exponential time kill curve
[4] = system: B. cenocepacia K56-2 persister cells; assay: Time kill of persister cells generated with ciprofloxacin; format: cell-based, Burkholderia cenocepacia
[5] = system: Achromobacter xylosoxidans ACH03; format: cell-based
B. pseudomallei MSHR465a = format: cell-based, Burkholderia pseudomallei
B. cenocepacia 140485 = format: cell-based, Burkholderia cenocepacia; settings: B. cenocepacia 140485
[6] = system: Klebsiella pneumoniae 120310; assay: MBC (minimum bactericidal concentration)
Escherichia coli 120955 [7] = assay: MBC (minimum bactericidal concentration)
B. lata BCC6 = format: cell-based, Burkholderia lata; settings: B. lata BCC6
[8] = system: Staphylococcus aureus ATCC 27700; assay: MBC (minimum bactericidal concentration)
[9] = system: Burkholderia cenocepacia K56-2; assay: Time kill assays (exponential and stationary phase); settings: time kill, 1×, 2×, 6 h
[10] = system: Achromobacter xylosoxidans ACH03; assay: MBC (minimum bactericidal concentration)
[11] = system: B. mallei China 5 (NBL 4); format: cell-based, Burkholderia mallei
B. cenocepacia K56-2 [12] = format: cell-based, Burkholderia cenocepacia; settings: B. cenocepacia K56-2; CAMHB, 18 h, 37 °C
[13] = system: Escherichia vulneris CEP511; assay: MBC (minimum bactericidal concentration)
[14] = system: Staphylococcus aureus 107094; format: cell-based
[15] = system: B. contaminans FFH-2050MA; format: cell-based, Burkholderia contaminans; settings: B. contaminans FFH-2050MA
B. contaminans FFH-4004 = format: cell-based, Burkholderia contaminans; settings: B. contaminans FFH-4004
[16] = system: Stenotrophomonas maltophilia K279a; assay: MBC (minimum bactericidal concentration); format: cell-based
B. multivorans ATCC17616 = format: cell-based, Burkholderia multivorans; settings: B. multivorans ATCC17616
B. cenocepacia K56-2 [17] = assay: In vivo antibiotic activity in infected C. elegans; settings: C. elegans infected with B. cenocepacia K56-2, data not shown
[18] = system: B. pseudomallei HBPUB10134a; format: cell-based, Burkholderia pseudomallei
B. ubonensis LMG 20358 = format: cell-based, Burkholderia ubonensis; settings: B. ubonensis LMG 20358
[19] = system: Acinetobacter baumannii ATCC 17978; format: cell-based
B. cenocepacia K56-2 [20] = assay: In vivo antibiotic activity in infected G. mellonella; settings: G. mellonella infected with B. cenocepacia K56-2, data not shown
B. contaminans MF16 = format: cell-based, Burkholderia contaminans; settings: B. contaminans MF16
[21] = system: Stenotrophomonas maltophilia DH57; format: cell-based
B. pseudomallei MSHR305 = format: cell-based, Burkholderia pseudomallei
[22] = system: Klebsiella pneumoniae 120310; format: cell-based
[23] = system: Stenotrophomonas maltophilia DH57; assay: MBC (minimum bactericidal concentration)
B. cenocepacia K56-2 [24] = assay: Persister frequency assay; settings: 24 h
[25] = system: B. mallei Ivan (NCTC 10230); format: cell-based, Burkholderia mallei
[26] = system: Acinetobacter baumannii ATCC 17978; assay: MBC (minimum bactericidal concentration)
B. pseudomallei 1710b = format: cell-based, Burkholderia pseudomallei
[27] = system: Staphylococcus aureus ATCC 27700; format: cell-based
[28] = system: Galleria mellonella larvae; assay: Galleria toxicity
B. cenocepacia K56-2 [29] = assay: MIC in 50% human serum; format: cell-based, Burkholderia cenocepacia
[30] = system: Escherichia vulneris CEP511; format: cell-based
B. dolosa CEP021 = format: cell-based, Burkholderia dolosa; settings: B. dolosa CEP021
[31] = system: Staphylococcus aureus 107094; assay: MBC (minimum bactericidal concentration)
[32] = system: B. mallei China 7 (NBL 7); format: cell-based, Burkholderia mallei

## C[PH](C)(C)[Au][S]CCO [MS-40, 2-mercaptoethanolatotrimethylphosphine gold(I)]
Human A549 cells
  toxicity in human A549 cells compared with auranofin: lower toxicity
[1]
  MIC: 2 µg/mL
Escherichia coli 120955 [2]
  MIC: 4 µg/mL
[3]
  MBC: 8 * μg/mL
[4]; enriched persister population
  further reduction of ciprofloxacin-generated persister population: 1–2 log10 CFU/mL
[4]; in PBS, 3 h, MS-40S/MS-40 2× and 4× MIC, ciprofloxacin 5× MIC
  killing of ciprofloxacin-generated persister cells: killed to a concentration below/close to the limit of detection
[5]
  MIC: 8 µg/mL
B. pseudomallei MSHR465a
  MIC: 4 µg/mL
B. cenocepacia 140485
  MIC: 8 µg/mL
[6]
  MBC: 4 µg/mL
Escherichia coli 120955 [7]
  MBC: 32 µg/mL
B. lata BCC6
  MIC: 8 µg/mL
[8]
  MBC: 2 µg/mL
[9]; 4× MIC (DOX 4× MIC)
  killing of stationary (non-replicating) phase cells: bactericidal
[9]; 4× MIC
  killing of exponential (replicating) phase cells: bactericidal
[10]
  MBC: 8 µg/mL
[11]
  MIC: 0.12 µg/mL
B. cenocepacia K56-2 [12]
  MIC: 4 µg/mL
[13]
  MBC: 2 µg/mL
[14]
  MIC: 0.25 µg/mL
[15]
  MIC: 4 µg/mL
B. contaminans FFH-4004
  MIC: 8 µg/mL
[16]
  MBC: 2 µg/mL
B. multivorans ATCC17616
  MIC: 8 µg/mL
B. cenocepacia K56-2 [17]
  in vivo antibiotic activity: did not observe in vivo antibiotic activity
[18]
  MIC: 4 µg/mL
B. ubonensis LMG 20358
  MIC: 16 µg/mL
[19]
  MIC: 2 µg/mL
B. cenocepacia K56-2 [20]
  in vivo antibiotic activity: did not observe in vivo antibiotic activity
B. contaminans MF16
  MIC: 8 µg/mL
[21]
  MIC: 1 µg/mL
B. pseudomallei MSHR305
  MIC: 2 µg/mL
[22]
  MIC: 2 µg/mL
[23]
  MBC: 4 µg/mL
B. cenocepacia K56-2 [24]; 5× MIC
  persister frequency (percent survival): No persisters
B. cenocepacia K56-2 [24]; 10× MIC
  persister frequency (percent survival): No persisters
[25]
  MIC: 0.12 µg/mL
[26]
  MBC: 4 µg/mL
B. pseudomallei 1710b
  MIC: 4 µg/mL
[27]
  MIC: 0.25 µg/mL
[28]; 1.0 mg/kg, 24 h
  Galleria Survival: 100%
[28]; 1.0 mg/kg, 48 h
  Galleria Survival: 96.7%
[28]; 1.0 mg/kg, 72 h
  Galleria Survival: 96.7%
[28]; 2.0 mg/kg, 24 h
  Galleria Survival: 90.0%
[28]; 2.0 mg/kg, 48 h
  Galleria Survival: 80.0%
[28]; 2.0 mg/kg, 72 h
  Galleria Survival: 80.0%
[28]; 5.0 mg/kg, 24 h
  Galleria Survival: 96.7%
[28]; 5.0 mg/kg, 48 h
  Galleria Survival: 93.3%
[28]; 5.0 mg/kg, 72 h
  Galleria Survival: 90.0%
[28]; 10 mg/kg
  percent survival of Galleria larvae: ≥ 80%
[28]; 10.0 mg/kg, 24 h
  Galleria Survival: 90.0%
[28]; 10.0 mg/kg, 48 h
  Galleria Survival: 83.3%
[28]; 10.0 mg/kg, 72 h
  Galleria Survival: 80.0%
B. cenocepacia K56-2 [29]
  MIC in the presence of 50% human serum: 128 µg/mL
[30]
  MIC: 2 µg/mL
B. dolosa CEP021
  MIC: 16 µg/mL
[31]
  MBC: 1 µg/mL
[32]
  MIC: 0.25 µg/mL

From article PMC8697972, “New Auranofin Analogs with Antibacterial Properties against Burkholderia Clinical Isolates” (Antibiotics, 2021)
